PubChem BioAssay AID1963829 (Molecular Pharmacology Branch, DTP, NCI, 2024)

Test system: 935938-334-R-J1-PDC complex spheroid viability
Experiment: Anticancer human tumor 935938-334-R-J1-PDC patient-derived small intestine adenocarcinoma cell line growth inhibition [POLQ]
Details: for IC50: curve of first compound; for viability, T/C: stronger effect = lower value
How it was run: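 Three-cell-type spheroids modelling solid tumor plus stroma served as the readout system; POL inhibitors were tested individually and in combination, concentration ranges set by clinical Cmax where known.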

[1] = second compound 0.0316 µM, first compound 0.0316 µM
[2] = second compound 0.0316 µM, first compound 0.1 µM
[3] = second compound 0.0316 µM, first compound 0.316 µM
[4] = second compound 0.0316 µM, first compound 1 µM
[5] = second compound 0.1 µM, first compound 0.0316 µM
[6] = second compound 0.1 µM, first compound 0.1 µM
[7] = second compound 0.1 µM, first compound 0.316 µM
[8] = second compound 0.1 µM, first compound 1 µM
[9] = second compound 0.316 µM, first compound 0.0316 µM
[10] = second compound 0.316 µM, first compound 0.1 µM
[11] = second compound 0.316 µM, first compound 0.316 µM
[12] = second compound 0.316 µM, first compound 1 µM
[13] = second compound 1 µM, first compound 0.0316 µM
[14] = second compound 1 µM, first compound 0.1 µM
[15] = second compound 1 µM, first compound 0.316 µM
[16] = second compound 1 µM, first compound 1 µM
[17] = second compound 3.16 µM, first compound 0.0316 µM
[18] = second compound 3.16 µM, first compound 0.1 µM
[19] = second compound 3.16 µM, first compound 0.316 µM
[20] = second compound 3.16 µM, first compound 1 µM
[21] = second compound 10 µM, first compound 0.0316 µM
[22] = second compound 10 µM, first compound 0.1 µM
[23] = second compound 10 µM, first compound 0.316 µM
[24] = second compound 10 µM, first compound 1 µM
[25] = second compound 0.0316 µM, first compound 0.00316 µM
[26] = second compound 0.0316 µM, first compound 0.01 µM
[27] = second compound 0.1 µM, first compound 0.00316 µM
[28] = second compound 0.1 µM, first compound 0.01 µM
[29] = second compound 0.316 µM, first compound 0.00316 µM
[30] = second compound 0.316 µM, first compound 0.01 µM
[31] = second compound 1 µM, first compound 0.00316 µM
[32] = second compound 1 µM, first compound 0.01 µM
[33] = second compound 3.16 µM, first compound 0.00316 µM
[34] = second compound 3.16 µM, first compound 0.01 µM
[35] = second compound 10 µM, first compound 0.00316 µM
[36] = second compound 10 µM, first compound 0.01 µM
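Also: spheroids exposed to drugs for seven days before viability read.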
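For viability, T/C in this document: 100% = DMSO vehicle control wells.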

For CCCS(=O)(=O)Nc1ccc(F)c(C(=O)c2c[nH]c3ncc(-c4ccc(Cl)cc4)cc23)c1F + COC1C(OC(N)=O)C(O)C(Oc2ccc3c(O)c(NC(=O)c4ccc(O)c(CC=C(C)C)c4)c(=O)oc3c2C)OC1(C)C, the IC50 (second compound 0.0316 µM) was 9130 nM, the IC50 (second compound 0.1 µM) was 8460 nM and the IC50 (second compound 0.316 µM) was 9270 nM. For the same molecule, the IC50 (second compound 1 µM) was 8520 nM, the IC50 (second compound 3.16 µM) was 9730 nM and the IC50 (second compound 10 µM) was 9940 nM. The viability, T/C [1] was 96.1%, the viability, T/C [2] was 142% and the viability, T/C [3] was 118%. It also gave a viability, T/C [4] of 111%, a viability, T/C (second compound 0.0316 µM, first compound 3.16 µM) of 101% and a viability, T/C (second compound 0.0316 µM, first compound 10 µM) of 45.4%. For the same molecule, the viability, T/C [5] was 113%, the viability, T/C [6] was 80.5% and the viability, T/C [7] was 103%. The viability, T/C [8] was 110%, the viability, T/C (second compound 0.1 µM, first compound 3.16 µM) was 134% and the viability, T/C (second compound 0.1 µM, first compound 10 µM) was 40.2%. It also gave a viability, T/C [9] of 73.6%, a viability, T/C [10] of 98.8% and a viability, T/C [11] of 119%. For the same molecule, the viability, T/C [12] was 121%, the viability, T/C (second compound 0.316 µM, first compound 3.16 µM) was 125% and the viability, T/C (second compound 0.316 µM, first compound 10 µM) was 45.9%. For the same molecule, the viability, T/C [13] was 116%, the viability, T/C [14] was 117% and the viability, T/C [15] was 101%. The viability, T/C [16] was 131%, the viability, T/C (second compound 1 µM, first compound 3.16 µM) was 111% and the viability, T/C (second compound 1 µM, first compound 10 µM) was 40.1%. It also gave a viability, T/C [17] of 114%, a viability, T/C [18] of 107% and a viability, T/C [19] of 120%. It also gave a viability, T/C [20] of 147%, a viability, T/C (second compound 3.16 µM, first compound 3.16 µM) of 111% and a viability, T/C (second compound 3.16 µM, first compound 10 µM) of 48.7%. The viability, T/C [21] was 104%, the viability, T/C [22] was 97.6% and the viability, T/C [23] was 130%. The viability, T/C [24] was 129%, the viability, T/C (second compound 10 µM, first compound 3.16 µM) was 127% and the viability, T/C (second compound 10 µM, first compound 10 µM) was 49.6%.

Work on COc1cccc(OCCCN)c1-c1cc(Nc2cnc(C#N)cn2)n[nH]1 + COC1C(OC(N)=O)C(O)C(Oc2ccc3c(O)c(NC(=O)c4ccc(O)c(CC=C(C)C)c4)c(=O)oc3c2C)OC1(C)C yielded an IC50 (second compound 0.0316 µM) of 49.6 nM, an IC50 (second compound 0.1 µM) of 38.7 nM and an IC50 (second compound 0.316 µM) of 47.9 nM. It also gave an IC50 (second compound 1 µM) of 36.9 nM, an IC50 (second compound 3.16 µM) of 36.9 nM and an IC50 (second compound 10 µM) of 27.8 nM. The viability, T/C [25] was 90.2%, the viability, T/C [26] was 88.9% and the viability, T/C [1] was 65.2%. It also gave a viability, T/C [2] of 25.8%, a viability, T/C [3] of 12.1% and a viability, T/C [4] of 9.12%. The viability, T/C [27] was 100%, the viability, T/C [28] was 89.1% and the viability, T/C [5] was 54.5%. It also gave a viability, T/C [6] of 25.4%, a viability, T/C [7] of 12.5% and a viability, T/C [8] of 9.92%. It also gave a viability, T/C [29] of 89.2%, a viability, T/C [30] of 79.7% and a viability, T/C [9] of 64.2%. For the same molecule, the viability, T/C [10] was 26.6%, the viability, T/C [11] was 10.6% and the viability, T/C [12] was 9.51%. The viability, T/C [31] was 113%, the viability, T/C [32] was 85.1% and the viability, T/C [13] was 57.5%. For the same molecule, the viability, T/C [14] was 23.7%, the viability, T/C [15] was 11.1% and the viability, T/C [16] was 8.98%. It also gave a viability, T/C [33] of 80.7%, a viability, T/C [34] of 89.8% and a viability, T/C [17] of 52%. It also gave a viability, T/C [18] of 22.3%, a viability, T/C [19] of 11.1% and a viability, T/C [20] of 9%. For the same molecule, the viability, T/C [35] was 84.4%, the viability, T/C [36] was 91.6% and the viability, T/C [21] was 45.3%. For the same molecule, the viability, T/C [22] was 15.4%, the viability, T/C [23] was 11.8% and the viability, T/C [24] was 8.31%.

Cn1ncnc1[C@H]1c2n[nH]c(=O)c3cc(F)cc(c23)N[C@@H]1c1ccc(F)cc1 + COC1C(OC(N)=O)C(O)C(Oc2ccc3c(O)c(NC(=O)c4ccc(O)c(CC=C(C)C)c4)c(=O)oc3c2C)OC1(C)C was tested, and the IC50 (second compound 0.0316 µM) was > 100 nM, the IC50 (second compound 0.1 µM) was > 100 nM and the IC50 (second compound 0.316 µM) was > 100 nM. The IC50 (second compound 1 µM) was > 100 nM, the IC50 (second compound 3.16 µM) was > 100 nM and the IC50 (second compound 10 µM) was > 100 nM. For the same molecule, the viability, T/C (second compound 0.0316 µM, first compound 0.000316 µM) was 101%, the viability, T/C (second compound 0.0316 µM, first compound 0.001 µM) was 106% and the viability, T/C [25] was 85.8%. The viability, T/C [26] was 83.9%, the viability, T/C [1] was 92.9% and the viability, T/C [2] was 83.2%. The viability, T/C (second compound 0.1 µM, first compound 0.000316 µM) was 96.5%, the viability, T/C (second compound 0.1 µM, first compound 0.001 µM) was 113% and the viability, T/C [27] was 103%. The viability, T/C [28] was 89.8%, the viability, T/C [5] was 88.5% and the viability, T/C [6] was 83.5%. The viability, T/C (second compound 0.316 µM, first compound 0.000316 µM) was 94.7%, the viability, T/C (second compound 0.316 µM, first compound 0.001 µM) was 73.8% and the viability, T/C [29] was 97.6%. The viability, T/C [30] was 115%, the viability, T/C [9] was 103% and the viability, T/C [10] was 89.5%. It also gave a viability, T/C (second compound 1 µM, first compound 0.000316 µM) of 84%, a viability, T/C (second compound 1 µM, first compound 0.001 µM) of 105% and a viability, T/C [31] of 121%. For the same molecule, the viability, T/C [32] was 94.8%, the viability, T/C [13] was 90.8% and the viability, T/C [14] was 70.6%. It also gave a viability, T/C (second compound 3.16 µM, first compound 0.000316 µM) of 101%, a viability, T/C (second compound 3.16 µM, first compound 0.001 µM) of 102% and a viability, T/C [33] of 84.3%. For the same molecule, the viability, T/C [34] was 84.6%, the viability, T/C [17] was 61.7% and the viability, T/C [18] was 90%. It also gave a viability, T/C (second compound 10 µM, first compound 0.000316 µM) of 128%, a viability, T/C (second compound 10 µM, first compound 0.001 µM) of 92.7% and a viability, T/C [35] of 85.4%. For the same molecule, the viability, T/C [36] was 105%, the viability, T/C [21] was 78.7% and the viability, T/C [22] was 95.8%.
